Experimental findings from patent US20240247015A1, “PHOSPHORUS DERIVATIVES AS NOVEL SOS1 INHIBITORS” (BAYER AKTIENGESELLSCHAFT, priority 2021, published 2024) are described below.

Chain of interaction of human SOS1 (SOS1) with human K-RasG12C (Q07889 564-1049 limits assumed): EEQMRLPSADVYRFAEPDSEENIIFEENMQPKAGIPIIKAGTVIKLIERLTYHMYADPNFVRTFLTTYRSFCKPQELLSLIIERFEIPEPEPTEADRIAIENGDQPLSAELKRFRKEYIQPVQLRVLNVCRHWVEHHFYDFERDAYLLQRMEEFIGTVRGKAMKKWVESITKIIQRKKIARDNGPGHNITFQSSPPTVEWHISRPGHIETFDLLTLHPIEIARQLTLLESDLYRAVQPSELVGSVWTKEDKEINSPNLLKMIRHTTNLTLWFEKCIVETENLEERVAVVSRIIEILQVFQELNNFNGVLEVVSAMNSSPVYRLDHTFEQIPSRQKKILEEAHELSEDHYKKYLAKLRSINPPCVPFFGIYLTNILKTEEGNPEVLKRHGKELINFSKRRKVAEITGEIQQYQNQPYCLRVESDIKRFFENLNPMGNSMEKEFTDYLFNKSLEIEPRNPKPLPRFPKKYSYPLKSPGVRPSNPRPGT

The assay concerns the target interaction of human SOS1 (SOS1) with human K-RasG12C (Homo sapiens (Human), UniProt Q07889). As to the kind of experiment: Biochemical assay: hK-RasG12C interaction assay with hSOS1 (HTRF). It is filed as binding. The settings on record: GST-hK-RasG12C with His-hSOS1, 60 min incubation at 20° C., mean, read-out: K-RasG12C - SOS interaction assay IC50 (mean). The method in brief:
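Compounds, duplicates at 11 concentrations from 0.073 nM to 20 µM, were preincubated 2 min with 10 nM GST-hK-RasG12C, then 20 nM His-hSOS1 was added, all at 20 °C. After 60 min, 665/620 nm HTRF ratio normalized to DMSO and SOS1-free controls; IC50 by 4-parameter fit.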
In general terms: Time-resolved FRET reads energy transfer from a long-lived donor to a nearby acceptor.
With `Cc1nc(N[C@H](C)c2cccc(C(F)(F)CO)c2F)c2cc(P3(=O)CCCC3)ncc2n1` [Example 63, 1-[4-{{(1R)-1-[3-(1,1-difluoro-2-hydroxyethyl)-2-fluorophenyl]ethyl}amino)-2-methylpyrido[3,4-d]pyrimidin-6-yl]-1lambda^5-phospholan-1-one], the IC50 (as a rule, the concentration that gives 50% inhibition) was 10.1 nM.

For the molecule `CCP(=O)(CC)c1cc2c(N[C@H](C)c3cccc(C(F)(F)CO)c3F)nc(C)nc2cn1` [Example 64, 2-{3-[(1R)-1-{[6-(diethylphosphoryl)-2-methylpyrido[3,4-d]pyrimidin-4-yl]amino}ethyl]-2-fluorophenyl}-2,2-difluoroethan-1-ol], the IC50 turned out to be 17.8 nM.

Regarding `CCP(C)(=O)c1cc2c(N[C@H](C)c3cccc(C(F)(F)C(C)(C)O)c3F)nc(C)nc2cn1` (stereo partly drawn) [Example 67, 1-{3-[(1R)-1-{{6-[ethyl(methyl)phosphoryl]-2-methylpyrido[3,4-d]pyrimidin-4-yl}amino)ethyl]-2-fluorophenyl}-1,1-difluoro-2-methylpropan-2-ol], the IC50 came out at 66.9 nM.

For `Cc1nc(N[C@H](C)c2cccc(C(F)(F)C(C)(C)O)c2F)c2cc(P(C)(=O)C(C)C)ncc2n1` (stereo partly drawn) [Example 70, 1,1-difluoro-1-{2-fluoro-3-[(1R)-1-({2-methyl-6-[methyl(propan-2-yl)phosphoryl]pyrido[3,4-d]pyrimidin-4-yl}amino)ethyl]phenyl}-2-methylpropan-2-ol], the IC50 is 27.6 nM.

Turning to `Cc1nc(N[C@H](C)c2cccc(C(F)(F)C(C)(C)O)c2F)c2cc(P3(=O)CC=CC3)ncc2n1` [Example 85, 1-[4-({(1R)-1-[3-(1,1-difluoro-2-hydroxy-2-methylpropyl)-2-fluorophenyl]ethyl}amino)-2-methylpyrido[3,4-d]pyrimidin-6-yl]-2,5-dihydro-1H-1lambda^5-phosphol-1-one], the IC50 is 12 nM.

Consider `Cc1nc(N[C@H](C)c2cccc(C(F)(F)F)c2C)c2cc(P3(=O)CCN(C(=O)OC(C)(C)C)CC3)nc(C)c2n1` [Example 91, tert-butyl 4-[2,8-dimethyl-4-({(1R)-1-[2-methyl-3-(trifluoromethyl)phenyl]ethyl}amino)pyrido[3,4-d]pyrimidin-6-yl]-4-oxo-1,4lambda^5-azaphosphinane-1-carboxylate], for which the IC50 was 286 nM.

In the case of `CCP(=O)(CC)c1cc2c(N[C@H](C)c3cccc(C(F)F)c3F)nc(C)nc2cn1` [Example 92, 6-(diethylphosphoryl)-N-{(1R)-1-[3-(difluoromethyl)-2-fluorophenyl]ethyl}-2-methylpyrido[3,4-d]pyrimidin-4-amine], the half-inhibitory concentration (IC50) was 77.2 nM.

`COCC(F)(F)c1cccc([C@@H](C)Nc2nc(C)nc3cnc(P4(=O)CCCC4)cc23)c1F` [Example 93, 1-[4-{{(1R)-1-[3-(1,1-difluoro-2-methoxyethyl)-2-fluorophenyl]ethyl}amino)-2-methylpyrido[3,4-d]pyrimidin-6-yl]-1lambda^5-phospholan-1-one]: the IC50 was determined as 37 nM.

In the case of `COCC(F)(F)c1cccc([C@@H](C)Nc2nc(C)nc3cnc(P(C)(C)=O)cc23)c1F` [Example 94, N-{(1R)-1-[3-(1,1-difluoro-2-methoxyethyl)-2-fluorophenyl]ethyl}-6-(dimethylphosphoryl)-2-methylpyrido[3,4-d]pyrimidin-4-amine], the IC50 was determined as 46.5 nM.

Take `Cc1nc(N[C@H](C)c2cc(N)cc(C(F)(F)F)c2)c2cc(P3(=O)CCCC3)ncc2n1` [Example 95, 1-[4-{{(1R)-1-[3-amino-5-(trifluoromethyl)phenyl]ethyl}amino)-2-methylpyrido[3,4-d]pyrimidin-6-yl]-1lambda^5-phospholan-1-one]: the IC50 amounted to 23.9 nM.

Consider `CCP(=O)(CC)c1cc2c(N[C@H](C)c3cccc(C(F)(F)F)c3C)nc(C)nc2cn1` [Example 96, 6-(diethylphosphoryl)-2-methyl-N-{(1R)-1-[2-methyl-3-(trifluoromethyl)phenyl]ethyl}pyrido[3,4-d]pyrimidin-4-amine], for which the IC50 worked out at 50.2 nM.

Consider `Cc1nc(N[C@H](C)c2cc(N)cc(C(F)(F)F)c2)c2cc(P(C)(C)=O)ncc2n1` [Example 97, N-{(1R)-1-[3-amino-5-(trifluoromethyl)phenyl]ethyl}-6-(dimethylphosphoryl)-2-methylpyrido[3,4-d]pyrimidin-4-amine], for which the IC50 stood at 13.6 nM.

As for `Cc1nc(N[C@H](C)c2cccc(C(F)(F)F)c2C)c2cc(P(=O)(C(C)C)C(C)C)ncc2n1` [Example 98, 6-[di(propan-2-yl)phosphoryl]-2-methyl-N-{(1R)-1-[2-methyl-3-(trifluoromethyl)phenyl]ethyl}pyrido[3,4-d]pyrimidin-4-amine], the 50% inhibitory concentration (IC50) was 139 nM.

With `Cc1nc(N[C@H](C)c2cccc(C(F)(F)F)c2C)c2cc(P3(=O)CCCC3)ncc2n1` [Example 99, 1-[2-methyl-4-{{(1R)-1-[2-methyl-3-(trifluoromethyl)phenyl]ethyl}amino)pyrido[3,4-d]pyrimidin-6-yl]-1lambda^5-phospholan-1-one], the IC50 turned out to be 32.1 nM.

As for `Cc1nc(N[C@H](C)c2cccc(C(F)(F)F)c2C)c2cc(P3(=O)CCCC3)c(C)nc2n1` [Example 100, 1-[2,7-dimethyl-4-{{(1R)-1-[2-methyl-3-(trifluoromethyl)phenyl]ethyl}amino)pyrido[2,3-d]pyrimidin-6-yl]-1lambda^5-phospholan-1-one], the IC50 was determined as 4.89 nM.

Take `COc1nc2nc(C)nc(N[C@H](C)c3cccc(C(F)(F)F)c3C)c2cc1P(C)(C)=O` [Example 101, 6-(dimethylphosphoryl)-7-methoxy-2-methyl-N-{(1R)-1-[2-methyl-3-(trifluoromethyl)phenyl]ethyl}pyrido[2,3-d]pyrimidin-4-amine]: the IC50 was found to be 17.5 nM.

Regarding `Cc1nc(N[C@H](C)c2cccc(C(F)(F)F)c2C)c2cc(P(=O)(C(C)C)C(C)C)c(C)nc2n1` [Example 102, 6-[di(propan-2-yl)phosphoryl]-2,7-dimethyl-N-{(1R)-1-[2-methyl-3-(trifluoromethyl)phenyl]ethyl}pyrido[2,3-d]pyrimidin-4-amine], the IC50 came out at 80.2 nM.

Turning to `CCP(=O)(CC)c1cnc2nc(C)nc(N[C@H](C)c3cccc(C(F)(F)C(C)(C)O)c3F)c2c1` [Example 103, 1-{3-[(1R)-1-{[6-(diethylphosphoryl)-2-methylpyrido[2,3-d]pyrimidin-4-yl]amino}ethyl]-2-fluorophenyl}-1,1-difluoro-2-methylpropan-2-ol], the IC50 came out at 14.2 nM.

On to `Cc1nc(N[C@H](C)c2cccc(C(F)(F)F)c2C)c2cc(P3(=O)CCCC3)ccc2n1` [Example 104, 1-[2-methyl-4-{{(1R)-1-[2-methyl-3-(trifluoromethyl)phenyl]ethyl}amino)quinazolin-6-yl]-1lambda^5-phospholan-1-one], for which the IC50 was 18.8 nM.

Take `Cc1nc(N[C@H](C)c2cccc(C(F)(F)F)c2C)c2cc(P3(=O)CCN(Cc4ccccc4)CC3)ccc2n1` [Example 105, 1-benzyl-4-[2-methyl-4-({(1R)-1-[2-methyl-3-(trifluoromethyl)phenyl]ethyl}amino)quinazolin-6-yl]-1,4lambda^5-azaphosphinan-4-one]: the IC50 stood at 117 nM.

With `Cc1nc(N[C@H](C)c2cccc(C(F)(F)F)c2C)c2cc(P(C)(C)=O)ccc2n1` [Example 106, 6-(dimethylphosphoryl)-2-methyl-N-{(1R)-1-[2-methyl-3-(trifluoromethyl)phenyl]ethyl}quinazolin-4-amine], the IC50 was determined as 16.1 nM.
